Measurements published in publication PMC11868595, “Safety, pharmacokinetics and efficacy of HA121-28 in patients with advanced solid tumors and RET fusion-positive non-small-cell lung cancer: a multicenter, open-label, single-arm phase 1/2 trial” (Signal Transduction and Targeted Therapy, 2025).

Tested on: patients with advanced solid tumors
Assay: Phase 1 trial: adverse events (CTCAE), DLT and MTD
Type: in vivo, human
Experimental: The phase 1 trial was a two-part, multicenter, open-label, nonrandomized study to evaluate the safety and preliminary efficacy of HA121-28.
Safety, tolerability, and PK of HA121-28 was assessed in dose-escalation part. The single-patient accelerated titration was carried out at 25 mg and 50 mg; then, the dose escalation proceeded according to a “3 + 3” design in dose range of 100 to 800 mg. Escalation to a higher dose level was considered by the satisfactory review of safety results from the previous lower dose during the first cycle.
The dose-expansion part aims to further access the safety and efficacy of HA121-28 at the selected doses based on data from the dose-escalation part. The RP2D was determined by investigators in view of a thorough review of safety, PK, and efficacy results.
In phase 1 trial, during the dose-escalation part, patients first administered HA121-28 in a single ascending dose under the fasted state, then followed up for seven days. Then, patients received ascending doses of HA121-28 (q.d.) on a 21-day on and 7-day off treatment scheme for a 28-day cycle. For patients deemed beneficial from the treatment by investigators, treatment could remain until disease progression, or they discontinued from the study. In the dose-expansion part of phase 1, as well as phase 2, patients received HA121-28 (q.d.) at the selected doses on a 21-day on and 7-day off treatment scheme until disease progression, or they discontinued from the study.
Treatment-emergent adverse events (TEAEs) were documented during the entire study period. The predefined adverse event of special interest (AESI) was ≥ grade 3 prolonged QT interval. Tumor imaging was performed using contrast-enhanced computed tomography or magnetic resonance imaging at screening, Day 28 of the first cycle, then approximately every eight weeks till the end of the study for phase 1; in phase 2, imaging was scheduled at screening, and every eight weeks during the first 40 weeks, followed by every 12 weeks for the rest of the study period. RECIST 1.1 was used by the independent review committee or investigators for assessment of tumor response. After the original assessment, a repeated assessment was required around four weeks later to confirm a complete or partial response.
The primary endpoints of phase 1 were to investigate the MTD, dose-limiting toxicities, and the incidence and severity of TEAEs. Each TEAE was graded according to the Common Terminology Criteria for Adverse Events (CTCAE, version 5.0) and coded by Medical Dictionary for Regulatory Activities (MedDRA, version 21.0). The secondary endpoints included calculating PK parameters, assessing the ORR and DCR at the recommended dose by investigators as per RECIST 1.1. The exploratory endpoint was PFS.
If grade 2 or higher toxicity related to the study drug occurs in Groups 1 and 2 (as determined by the investigator), dose escalation will proceed using a 3+3 design starting from that dose level. If no DLT is observed at the 800 mg/d dose level after dose escalation, a meeting of investigators will be convened to decide whether to proceed with further dose escalation based on the available PK data, safety, and tolerability information.
5. Definition of DLT and MTD
The following events related to the study drug (including those that are definitely related, highly likely to be related, and possibly related):
(1) Grade 4 hematologic toxicity or grade 3 neutropenia accompanied by a fever of 38.5℃ or higher, or grade 3 thrombocytopenia accompanied by severe bleeding.
(2) Patients who discontinued the medication for more than 7 days due to unresolved toxicity reactions or who discontinued the medication more than twice due to toxicity […]
(3) In the context of supportive treatment, diarrhea of grade 2 lasting more than 7 days, or grade 3 diarrhea lasting more than 3 days.

[1] = Phase 1 Study, patient 5 with Grade 3 QTc prolongation
[2] = Phase 1 Study, patient 9 with Grade 3 QTc prolongation

Structure (SMILES): COc1cc2c(Nc3ccc(Br)cc3F)ncnc2cc1OCCCCN(C)C.Cl.Cl [HA121-28, N-(4-bromo-2-fluorophenyl)-7-(4-(dimethylamino)butoxy)-6-methoxy quinazolin-4-amine dihydrochloride]
- Serious TEAE: Headache (Phase 1, 800 mg (N=3)): 0 No. (%)
- Serious TEAE: Hemoptysis (Phase 1, 800 mg (N=3)): 0 No. (%)
- Serious TEAE: Hydronephrosis (Phase 1, 800 mg (N=3)): 0 No. (%)
- Serious TEAE: Hypertension (Phase 1, 800 mg (N=3)): 0 No. (%)
- Serious TEAE: Hypoalbuminemia (Phase 1, 800 mg (N=3)): 0 No. (%)
- Serious TEAE: Intestinal obstruction (Phase 1, 800 mg (N=3)): 0 No. (%)
- Serious TEAE: Intra-abdominal fluid collection (Phase 1, 800 mg (N=3)): 0 No. (%)
- Serious TEAE: Intracranial tumor hemorrhage (Phase 1, 800 mg (N=3)): 0 No. (%)
- Serious TEAE: Liver injury (Phase 1, 800 mg (N=3)): 0 No. (%)
- Serious TEAE: Lung adenocarcinoma (Phase 1, 800 mg (N=3)): 0 No. (%)
- Serious TEAE: Malignant neoplasm progression (Phase 1, 800 mg (N=3)): 0 No. (%)
- Serious TEAE: Multiple organ dysfunction syndrome (Phase 1, 800 mg (N=3)): 0 No. (%)
- Serious TEAE: Nausea (Phase 1, 800 mg (N=3)): 0 No. (%)
- Serious TEAE: Nephrolithiasis (Phase 1, 800 mg (N=3)): 0 No. (%)
- Serious TEAE: Platelet counts decreased (Phase 1, 800 mg (N=3)): 0 No. (%)
- Serious TEAE: Pleural effusion (Phase 1, 800 mg (N=3)): 0 No. (%)
- Serious TEAE: Pneumonia (Phase 1, 800 mg (N=3)): 0 No. (%)
- Serious TEAE: Pneumonitis (Phase 1, 800 mg (N=3)): 0 No. (%)
- Serious TEAE: Prolonged QT interval (Phase 1, 800 mg (N=3)): 0 No. (%)
- Serious TEAE: Pulmonary embolism (Phase 1, 800 mg (N=3)): 0 No. (%)
- Serious TEAE: Pyrexia (Phase 1, 800 mg (N=3)): 0 No. (%)
- Serious TEAE: Rash (Phase 1, 800 mg (N=3)): 0 No. (%)
- Serious TEAE: Rectal hemorrhage (Phase 1, 800 mg (N=3)): 0 No. (%)
- Serious TEAE: Respiratory failure (Phase 1, 800 mg (N=3)): 0 No. (%)
- Serious TEAE: Seizure (Phase 1, 800 mg (N=3)): 0 No. (%)
- Serious TEAE: Septic shock (Phase 1, 800 mg (N=3)): 0 No. (%)
- Serious TEAE: Sudden cardiac arrest (Phase 1, 800 mg (N=3)): 0 No. (%)
- Serious TEAE: Sudden death (Phase 1, 800 mg (N=3)): 0 No. (%)
- Serious TEAE: Upper respiratory tract infection (Phase 1, 800 mg (N=3)): 0 No. (%)
- Serious TEAE: Ventricular tachycardia (Phase 1, 800 mg (N=3)): 0 No. (%)
- Serious TEAE: Vomiting (Phase 1, 800 mg (N=3)): 0 No. (%)
- Serious TEAE: Weight loss (Phase 1, 800 mg (N=3)): 1 (33.3) No. (%)
- Serious TRAE: ALT increased (Phase 1, 800 mg (N=3)): 0 No. (%)
- Serious TRAE: AST increased (Phase 1, 800 mg (N=3)): 0 No. (%)
- Serious TRAE: Abdominal Pain (Phase 1, 800 mg (N=3)): 0 No. (%)
- Serious TRAE: Abdominal distension (Phase 1, 800 mg (N=3)): 0 No. (%)
- Serious TRAE: Acute cholecystitis (Phase 1, 800 mg (N=3)): 0 No. (%)
- Serious TRAE: Acute pancreatitis (Phase 1, 800 mg (N=3)): 0 No. (%)
- Serious TRAE: Anal abscess (Phase 1, 800 mg (N=3)): 0 No. (%)
- Serious TRAE: Any (Phase 1, 800 mg (N=3)): 1 (33.3) No. (%)
- Serious TRAE: Aortic intramural hematoma (Phase 1, 800 mg (N=3)): 0 No. (%)
- Serious TRAE: Arrhythmia (Phase 1, 800 mg (N=3)): 0 No. (%)
- Serious TRAE: Blood bilirubin increased (Phase 1, 800 mg (N=3)): 0 No. (%)
- Serious TRAE: Blood creatinine increased (Phase 1, 800 mg (N=3)): 0 No. (%)
- Serious TRAE: COVID-19 (Phase 1, 800 mg (N=3)): 0 No. (%)
- Serious TRAE: Cardiac tamponade (Phase 1, 800 mg (N=3)): 0 No. (%)
- Serious TRAE: Coronary artery atherosclerosis (Phase 1, 800 mg (N=3)): 0 No. (%)
- Serious TRAE: Death (Phase 1, 800 mg (N=3)): 0 No. (%)
- Serious TRAE: Diarrhea (Phase 1, 800 mg (N=3)): 0 No. (%)
- Serious TRAE: Drug eruption (Phase 1, 800 mg (N=3)): 0 No. (%)
- Serious TRAE: Dyspnea (Phase 1, 800 mg (N=3)): 0 No. (%)
- Serious TRAE: Embolism (Phase 1, 800 mg (N=3)): 0 No. (%)
- Serious TRAE: Erythema multiforme (Phase 1, 800 mg (N=3)): 0 No. (%)
- Serious TRAE: Headache (Phase 1, 800 mg (N=3)): 0 No. (%)
- Serious TRAE: Hemoptysis (Phase 1, 800 mg (N=3)): 0 No. (%)
- Serious TRAE: Hydronephrosis (Phase 1, 800 mg (N=3)): 0 No. (%)
- Serious TRAE: Hypertension (Phase 1, 800 mg (N=3)): 0 No. (%)
- Serious TRAE: Hypoalbuminemia (Phase 1, 800 mg (N=3)): 0 No. (%)
- Serious TRAE: Intestinal obstruction (Phase 1, 800 mg (N=3)): 0 No. (%)
- Serious TRAE: Intra-abdominal fluid collection (Phase 1, 800 mg (N=3)): 0 No. (%)
- Serious TRAE: Intracranial tumor hemorrhage (Phase 1, 800 mg (N=3)): 0 No. (%)
- Serious TRAE: Liver injury (Phase 1, 800 mg (N=3)): 0 No. (%)
- Serious TRAE: Lung adenocarcinoma (Phase 1, 800 mg (N=3)): 0 No. (%)
- Serious TRAE: Malignant neoplasm progression (Phase 1, 800 mg (N=3)): 0 No. (%)
- Serious TRAE: Multiple organ dysfunction syndrome (Phase 1, 800 mg (N=3)): 0 No. (%)
- Serious TRAE: Nausea (Phase 1, 800 mg (N=3)): 0 No. (%)
- Serious TRAE: Nephrolithiasis (Phase 1, 800 mg (N=3)): 0 No. (%)
- Serious TRAE: Platelet counts decreased (Phase 1, 800 mg (N=3)): 0 No. (%)
- Serious TRAE: Pleural effusion (Phase 1, 800 mg (N=3)): 0 No. (%)
- Serious TRAE: Pneumonia (Phase 1, 800 mg (N=3)): 0 No. (%)
- Serious TRAE: Pneumonitis (Phase 1, 800 mg (N=3)): 0 No. (%)
- Serious TRAE: Prolonged QT interval (Phase 1, 800 mg (N=3)): 0 No. (%)
- Serious TRAE: Pulmonary embolism (Phase 1, 800 mg (N=3)): 0 No. (%)
- Serious TRAE: Pyrexia (Phase 1, 800 mg (N=3)): 0 No. (%)
- Serious TRAE: Rash (Phase 1, 800 mg (N=3)): 0 No. (%)
- Serious TRAE: Rectal hemorrhage (Phase 1, 800 mg (N=3)): 0 No. (%)
- Serious TRAE: Respiratory failure (Phase 1, 800 mg (N=3)): 0 No. (%)
- Serious TRAE: Seizure (Phase 1, 800 mg (N=3)): 0 No. (%)
- Serious TRAE: Septic shock (Phase 1, 800 mg (N=3)): 0 No. (%)
- Serious TRAE: Sudden cardiac arrest (Phase 1, 800 mg (N=3)): 0 No. (%)
- Serious TRAE: Sudden death (Phase 1, 800 mg (N=3)): 0 No. (%)
- Serious TRAE: Upper respiratory tract infection (Phase 1, 800 mg (N=3)): 0 No. (%)
- Serious TRAE: Ventricular tachycardia (Phase 1, 800 mg (N=3)): 0 No. (%)
- Serious TRAE: Vomiting (Phase 1, 800 mg (N=3)): 0 No. (%)
- Serious TRAE: Weight loss (Phase 1, 800 mg (N=3)): 1 (33.3) No. (%)
- Grade of cardiac TEAE: Cardiopalmus (Phase 1 Study, patient 1 with Grade 3 QTc prolongation): 2
- Grade of cardiac TEAE: Bradycardia (Phase 1 Study, patient 2 with Grade 3 QTc prolongation): 1
- Grade of cardiac TEAE: nodal tachycardia (Phase 1 Study, patient 3 with Grade 3 QTc prolongation): 1
- Grade of cardiac TEAE: T wave anomaly (Phase 1 Study, patient 4 with Grade 3 QTc prolongation): 1
- Grade of cardiac TEAE: Complete right bundle branch block [1]: 1
- Grade of cardiac TEAE: Incomplete right bundle branch block [1]: 1
- Grade of cardiac TEAE: sinus bradycardia [1]: 1
- Grade of cardiac TEAE: T wave anomaly (Phase 1 Study, patient 6 with Grade 3 QTc prolongation): 1
- Grade of cardiac TEAE: Ventricular arrhythmia (Phase 1 Study, patient 7 with Grade 3 QTc prolongation): 4
- Grade of cardiac TEAE: ST-T wave changes (Phase 1 Study, patient 8 with Grade 3 QTc prolongation): 1
- Grade of cardiac TEAE: Abnormal Q wave of III and aVF leads [2]: 2
- Grade of cardiac TEAE: Atrial premature beats [2]: 1
- Grade of cardiac TEAE: ST-T wave changes [2]: 1
- Grade of cardiac TEAE: T wave anomaly [2]: 1
- maximum tolerated dose (MTD) (once daily, phase 1 dose escalation): 600 mg
- AESI leading to dose interruption (phase 1): 10.6%
- AESI leading to permanent discontinuation (phase 1): 0.6%
- grade ≥ 3 TEAE diarrhea (phase 1): 8.1%
- grade ≥ 3 TEAE prolonged QT interval (AESI) (phase 1): 15.0%
- grade ≥ 3 TEAE rash (phase 1): 5.6%
- patients with at least one TEAE (phase 1): 99.4%
- patients with at least one TRAE (phase 1): 98.1%
- patients with grade ≥ 3 TEAEs (phase 1): 48.8%
- patients with grade ≥3 TRAEs (phase 1): 40.0%
- patients with treatment-related SAEs (phase 1): 14.4%
- treatment-related SAE rash (phase 1): 2.5%
- TEAE diarrhea (phase 1, all grades): 78.8%
- TEAE prolonged QT interval (phase 1, all grades): 50.0%
- TEAE rash (phase 1, all grades): 57.5%
- recommended phase 2 dose (RP2D) (q.d., 21-day on/7-day off): 450 mg
